According to patent US20140271604A1, “HDAC Inhibitor Polymorphic Forms and Methods of Use” (priority 2013, published 2014):

How the values were obtained:
[1] = Stability study in climate chamber (48-72 h, 40° C./75% RH), form assigned by XRPD; settings: for XRPD Form c: form assigned after the stability studies / XRPD Form b: form assigned after the stability studies: at 40° C./75% RH; for XRPD Form b: form assigned after the stability studies: samples from anti-solvent addition, label = form before stability; for Stability after storage in a climate chamber / XRPD pattern following storage exposure in the climate chamber: 48 to 72 hours at 40 degrees centigrade and 75% relative humidity
Method: Solubility assessment experiments were carried out in a variety of solvents followed by storage in a climate chamber for 48 to 72 hours at 40 degrees centigrade and 75% relative humidity.

[2] = Storage of samples under ambient conditions, form assigned by XRPD; assay type: physicochemical
[3] = 48-72 H, samples from cooling-evaporative crystallization, Table 7, label = form after recrystallization
[4] = 48-72 H, samples from cooling-evaporative crystallization, Table 6, label = form after recrystallization
[5] = 1-1.5 weeks ambient, cooling-evaporative crystallization, Table 6, label = form after recrystallization
[6] = 1-1.5 weeks ambient, cooling-evaporative crystallization, Table 7, label = form after recrystallization
[7] = 48-72 H, samples from slurry conversion, Table 9, label = form after slurry
[8] = 1-1.5 weeks ambient, slurry conversion, Table 9, label = form after slurry
[9] = 46-72 H, samples from solvent-drop grinding, Table 8, label = form after grinding
[10] = 1.5-2 weeks ambient, solvent-drop grinding, Table 8, label = form after grinding

CC(C)[C@H](C(=O)Nc1ccc(C(=O)NO)cc1)c1ccccc1 [Form A4, (S)—N-hydroxy-4-(3-methyl-2-phenylbutanamido)benzamide]
XRPD Form c: form assigned after the stability studies [1, 3]: Form A | XRPD Form b: form assigned after storage under ambient conditions ([2]; 1-1.5 weeks ambient, cooling-evaporative crystallization, Table 7, label = form after recrystallization, slurry in cyclohexane/cyclohexanone): Form B1_wet** | XRPD Form b: form assigned after storage under ambient conditions ([2]; 1-1.5 weeks ambient, cooling-evaporative crystallization, Table 7, label = form after recrystallization, slurry in cyclohexanone/tetrahydrofuran): Form R

CC(C)[C@H](C(=O)Nc1ccc(C(=O)NO)cc1)c1ccccc1 [Form D1_wet]
XRPD Form b: form assigned after the stability studies ([1]; 48-72 H, Table 3): Form D2 | XRPD Form c: form assigned after the stability studies [1, 4]: Form A_wet** | XRPD Form c: form assigned after the stability studies [1, 3]: Form A + Am* | XRPD Form b: form assigned after storage under ambient conditions [2, 5]: Form D1_wet** | XRPD Form b: form assigned after storage under ambient conditions [2, 6]: Form D1_wet

CC(C)[C@H](C(=O)Nc1ccc(C(=O)NO)cc1)c1ccccc1 [Form T_wet, (S)—N-hydroxy-4-(3-methyl-2-phenylbutanamido)benzamide]
XRPD Form b: form assigned after the stability studies ([1]; 48-72 H, Table 5): Form A

CC(C)[C@H](C(=O)Nc1ccc(C(=O)NO)cc1)c1ccccc1 [Form Z_wet]
XRPD Form c: form assigned after the stability studies [1, 4]: Form Z_wet** | XRPD Form b: form assigned after storage under ambient conditions [2, 5]: Form U1 + Am*

CC(C)C(C(=O)Nc1ccc(C(=O)NO)cc1)c1ccccc1 (centres unmarked) [Form A7 + Am]
XRPD Form c: form assigned after the stability studies [1, 7]: Form A + Am* | XRPD Form b: form assigned after storage under ambient conditions [2, 8]: Form A3 + Am*

CC(C)C(C(=O)Nc1ccc(C(=O)NO)cc1)c1ccccc1 (centres unmarked) [Form B1 + Form F5]
XRPD Form b: form assigned after the stability studies ([1]; 48-72 H, Table 3): Form A

CC(C)C(C(=O)Nc1ccc(C(=O)NO)cc1)c1ccccc1 (centres unmarked) [Form W + Am]
XRPD Form b: form assigned after the stability studies ([1]; 48-72 H, Table 3): Form A + Form

CC(C)[C@H](C(=O)Nc1ccc(C(=O)NO)cc1)c1ccccc1 [Form A3, (S)—N-hydroxy-4-(3-methyl-2-phenylbutanamido)benzamide]
XRPD Form c: form assigned after the stability studies [1, 9]: Form A | XRPD Form b: form assigned after storage under ambient conditions [2, 6]: Form L2 | XRPD Form b: form assigned after storage under ambient conditions [2, 10]: Form A

CC(C)C(C(=O)Nc1ccc(C(=O)NO)cc1)c1ccccc1 (centres unmarked) [Form A + Form J1]
XRPD Form c: form assigned after the stability studies [1, 3]: Form J1

CC(C)[C@H](C(=O)Nc1ccc(C(=O)NO)cc1)c1ccccc1 [Form J1, (S)—N-hydroxy-4-(3-methyl-2-phenylbutanamido)benzamide]
XRPD Form c: form assigned after the stability studies [1, 7]: Form J1 | Stability after storage in a climate chamber [1]: exhibited a particular degree of stability | XRPD pattern following storage exposure in the climate chamber [1]: remained unchanged | XRPD Form b: form assigned after storage under ambient conditions ([2]; 1-1.5 weeks ambient, cooling-evaporative crystallization, Table 7, label = form after recrystallization, slurry in dimethoxyethane/methanol): Form J2 | XRPD Form b: form assigned after storage under ambient conditions [2, 8]: Form J1 | XRPD Form b: form assigned after storage under ambient conditions [2, 10]: Form J1

CC(C)C(C(=O)Nc1ccc(C(=O)NO)cc1)c1ccccc1 (centres unmarked) [Form A3 + Am]
XRPD Form c: form assigned after the stability studies [1, 7]: Form A

CC(C)[C@H](C(=O)Nc1ccc(C(=O)NO)cc1)c1ccccc1 [Form A8, (S)—N-hydroxy-4-(3-methyl-2-phenylbutanamido)benzamide]
XRPD Form c: form assigned after the stability studies [1, 3]: Form A | XRPD Form b: form assigned after storage under ambient conditions [2, 6]: Form A8

CC(C)[C@H](C(=O)Nc1ccc(C(=O)NO)cc1)c1ccccc1 [Form A5a, (S)—N-hydroxy-4-(3-methyl-2-phenylbutanamido)benzamide]
XRPD Form c: form assigned after the stability studies [1, 9]: Form A5a | Stability after storage in a climate chamber [1]: exhibited a particular degree of stability | XRPD pattern following storage exposure in the climate chamber [1]: remained unchanged | XRPD Form b: form assigned after storage under ambient conditions [2, 10]: Form A5a

CC(C)[C@H](C(=O)Nc1ccc(C(=O)NO)cc1)c1ccccc1 [Form F1, (S)—N-hydroxy-4-(3-methyl-2-phenylbutanamido)benzamide]
XRPD Form b: form assigned after the stability studies ([1]; 48-72 H, Table 3): Form A + Am* | XRPD Form b: form assigned after the stability studies ([1]; 48-72 H, Table 5): Form A | XRPD Form c: form assigned after the stability studies [1, 3]: Form A | XRPD Form c: form assigned after the stability studies [1, 7]: Form A | XRPD Form b: form assigned after storage under ambient conditions [2, 8]: Form A_wet**

CC(C)[C@H](C(=O)Nc1ccc(C(=O)NO)cc1)c1ccccc1 [Form K_wet]
XRPD Form c: form assigned after the stability studies [1, 4]: Form A | XRPD Form b: form assigned after storage under ambient conditions [2, 5]: Form A

CC(C)[C@H](C(=O)Nc1ccc(C(=O)NO)cc1)c1ccccc1 [Form A2, (S)—N-hydroxy-4-(3-methyl-2-phenylbutanamido)benzamide]
XRPD Form b: form assigned after the stability studies ([1]; 48-72 H, Table 3): Form A

CC(C)[C@H](C(=O)Nc1ccc(C(=O)NO)cc1)c1ccccc1 [Form M1, (S)—N-hydroxy-4-(3-methyl-2-phenylbutanamido)benzamide]
XRPD Form c: form assigned after the stability studies [1, 3]: Form M1 | Stability after storage in a climate chamber [1]: exhibited a particular degree of stability | XRPD pattern following storage exposure in the climate chamber [1]: remained unchanged | XRPD Form b: form assigned after storage under ambient conditions [2, 6]: Form M1

CC(C)[C@H](C(=O)Nc1ccc(C(=O)NO)cc1)c1ccccc1 [Form G_gel, (S)—N-hydroxy-4-(3-methyl-2-phenylbutanamido)benzamide]
XRPD Form b: form assigned after the stability studies ([1]; 48-72 H, Table 3): Form A + Am*

CC(C)[C@H](C(=O)Nc1ccc(C(=O)NO)cc1)c1ccccc1 [Form A_minus, (S)—N-hydroxy-4-(3-methyl-2-phenylbutanamido)benzamide]
XRPD Form b: form assigned after the stability studies ([1]; 48-72 H, Table 3): Form A_minus | Stability after storage in a climate chamber [1]: exhibited a particular degree of stability

CC(C)C(C(=O)Nc1ccc(C(=O)NO)cc1)c1ccccc1 (centres unmarked) [Form A + Form H1]
XRPD Form b: form assigned after the stability studies ([1]; 48-72 H, Table 3): Form A

CC(C)[C@H](C(=O)Nc1ccc(C(=O)NO)cc1)c1ccccc1 [Form R, (S)—N-hydroxy-4-(3-methyl-2-phenylbutanamido)benzamide]
XRPD Form c: form assigned after the stability studies [1, 3]: Form A | XRPD Form b: form assigned after storage under ambient conditions [2, 6]: Form R

CC(C)C(C(=O)Nc1ccc(C(=O)NO)cc1)c1ccccc1 (centres unmarked) [Form Y + Am]
XRPD Form c: form assigned after the stability studies [1, 7]: Form M2 | XRPD Form b: form assigned after storage under ambient conditions [2, 8]: Form M2 + Am*

CC(C)[C@H](C(=O)Nc1ccc(C(=O)NO)cc1)c1ccccc1 [Form X_gel, (S)—N-hydroxy-4-(3-methyl-2-phenylbutanamido)benzamide]
XRPD Form c: form assigned after the stability studies [1, 4]: Form A_wet** | XRPD Form b: form assigned after storage under ambient conditions [2, 5]: Form U2 + Am*

CC(C)[C@H](C(=O)Nc1ccc(C(=O)NO)cc1)c1ccccc1 [Form L2, (S)—N-hydroxy-4-(3-methyl-2-phenylbutanamido)benzamide]
Stability after storage in a climate chamber [1]: exhibited a particular degree of stability

CC(C)[C@H](C(=O)Nc1ccc(C(=O)NO)cc1)c1ccccc1 [Form H1, (S)—N-hydroxy-4-(3-methyl-2-phenylbutanamido)benzamide]
XRPD Form c: form assigned after the stability studies [1, 4]: Form A | XRPD Form c: form assigned after the stability studies [1, 7]: Form A | XRPD Form b: form assigned after storage under ambient conditions [2, 5]: Form A | XRPD Form b: form assigned after storage under ambient conditions [2, 8]: Form A

CC(C)[C@H](C(=O)Nc1ccc(C(=O)NO)cc1)c1ccccc1 [Form A_min + Form T]
XRPD Form c: form assigned after the stability studies [1, 9]: Form A5a

CC(C)C(C(=O)Nc1ccc(C(=O)NO)cc1)c1ccccc1 (centres unmarked) [Form A2 + Am]
XRPD Form c: form assigned after the stability studies [1, 4]: Form Z_wet** | XRPD Form b: form assigned after storage under ambient conditions [2, 5]: Form U1 + Am

CC(C)C(C(=O)Nc1ccc(C(=O)NO)cc1)c1ccccc1 (centres unmarked) [Form A + Form F1]
XRPD Form c: form assigned after the stability studies [1, 9]: Form A | XRPD Form b: form assigned after storage under ambient conditions [2, 10]: Form A

CC(C)[C@H](C(=O)Nc1ccc(C(=O)NO)cc1)c1ccccc1 [Form A7, (S)—N-hydroxy-4-(3-methyl-2-phenylbutanamido)benzamide]
XRPD Form c: form assigned after the stability studies [1, 3]: Form A_plus | XRPD Form b: form assigned after storage under ambient conditions [2, 6]: Form A7

CC(C)[C@H](C(=O)Nc1ccc(C(=O)NO)cc1)c1ccccc1 [Form H2, (S)—N-hydroxy-4-(3-methyl-2-phenylbutanamido)benzamide]
XRPD Form c: form assigned after the stability studies [1, 9]: Form A | XRPD Form b: form assigned after storage under ambient conditions [2, 10]: Form A2

CC(C)[C@H](C(=O)Nc1ccc(C(=O)NO)cc1)c1ccccc1 [Form F3, (S)—N-hydroxy-4-(3-methyl-2-phenylbutanamido)benzamide]
XRPD Form c: form assigned after the stability studies [1, 3]: Form A

CC(C)[C@H](C(=O)Nc1ccc(C(=O)NO)cc1)c1ccccc1 [Form M2, (S)—N-hydroxy-4-(3-methyl-2-phenylbutanamido)benzamide]
XRPD Form c: form assigned after the stability studies [1, 3]: Form M2 | Stability after storage in a climate chamber [1]: exhibited a particular degree of stability | XRPD pattern following storage exposure in the climate chamber [1]: remained unchanged | XRPD Form b: form assigned after storage under ambient conditions [2, 6]: Form M2

CC(C)[C@H](C(=O)Nc1ccc(C(=O)NO)cc1)c1ccccc1 [Form F2, (S)—N-hydroxy-4-(3-methyl-2-phenylbutanamido)benzamide]
XRPD Form c: form assigned after the stability studies [1, 3]: Form A | XRPD Form b: form assigned after storage under ambient conditions [2, 6]: Form A3

CC(C)C(C(=O)Nc1ccc(C(=O)NO)cc1)c1ccccc1 (centres unmarked) [Form A + Form V]
XRPD Form c: form assigned after the stability studies [1, 9]: Form A | XRPD Form b: form assigned after storage under ambient conditions [2, 10]: Form A

CC(C)[C@H](C(=O)Nc1ccc(C(=O)NO)cc1)c1ccccc1 [Form F4_wet, (S)—N-hydroxy-4-(3-methyl-2-phenylbutanamido)benzamide]
XRPD Form c: form assigned after the stability studies [1, 7]: Form A + Am* | XRPD Form b: form assigned after storage under ambient conditions [2, 8]: Form A + Am*

CC(C)C(C(=O)Nc1ccc(C(=O)NO)cc1)c1ccccc1 (centres unmarked) [Form S + Am]
XRPD Form c: form assigned after the stability studies [1, 3]: Form A_plus
